# Calls of active or inactive are those of the source. The rule behind the calls is not given here.
# Tests used:
# Streptococcus pneumoniae [1] = test: Antibacterial activity against high dose 1.5 x 10^7 CFU Streptococcus pneumoniae serotype 2 infected in semitherapeutic C57BL/6 mouse model assessed as bacterial count in lung at 20 mg/kg, ip measured after 1 day post infection; format: functional; details: route intraperitoneal
# Streptococcus pneumoniae [2] = test: Antibacterial activity against high dose 1.5 x 10^7 CFU Streptococcus pneumoniae serotype 2 infected in therapeutic C57BL/6 mouse model assessed as bacterial count in lung at 20 mg/kg, ip measured after 3 days post infection; format: functional; details: route intraperitoneal
# Streptococcus pneumoniae [3] = test: Antibacterial activity against high dose 1.5 x 10^7 CFU Streptococcus pneumoniae serotype 2 infected in therapeutic C57BL/6 mouse model assessed as bacterial count in blood at 20 mg/kg, ip measured after 3 days post infection; format: functional; details: route intraperitoneal
# Streptococcus pneumoniae [4] = test: Antibacterial activity against high dose 1.5 x 10^7 CFU Streptococcus pneumoniae serotype 2 infected in therapeutic C57BL/6 mouse model assessed as reduction of bacteremia at 20 mg/kg, ip measured after 4 days post infection; format: functional, organism-based; parameters: dose 20 mg/kg
# Streptococcus pneumoniae [5] = test: Antibacterial activity against high dose 1.5 x 10^7 CFU Streptococcus pneumoniae serotype 19 infected in semitherapeutic C57BL/6 mouse model assessed as bacterial count in lung at 20 mg/kg, ip measured after 1 day post infection; format: functional; details: route intraperitoneal
# Streptococcus pneumoniae [6] = test: Antibacterial activity against high dose 1.5 x 10^7 CFU Streptococcus pneumoniae serotype 19 infected in semitherapeutic C57BL/6 mouse model assessed as reduction of bacteremia at 20 mg/kg, ip measured after 1 day post infection; format: functional, organism-based; parameters: dose 20 mg/kg
# Streptococcus pneumoniae [7] = test: Antibacterial activity against high dose 1.5 x 10^7 CFU Streptococcus pneumoniae serotype 19 infected in semitherapeutic C57BL/6 mouse model assessed as reduction of bacteremia at 20 mg/kg, ip measured after 2 days post infection; format: functional, organism-based; parameters: dose 20 mg/kg
# Streptococcus pneumoniae [8] = test: Antibacterial activity against 1.5 x 10^7 CFU Streptococcus pneumoniae serotype 2 infected in semitherapeutic C57BL/6 mouse model assessed as reduction of bacteremia at 20 mg/kg, ip measured after 1 day post infection; format: functional, organism-based; parameters: dose 20 mg/kg
# Streptococcus pneumoniae [9] = test: Antibacterial activity against 1.5 x 10^7 CFU Streptococcus pneumoniae serotype 2 infected in semitherapeutic C57BL/6 mouse model assessed as reduction of bacteremia at 20 mg/kg, ip measured after 2 days post infection; format: functional, organism-based; parameters: dose 20 mg/kg
# Streptococcus pneumoniae [10] = test: Antibacterial activity against 1.5 x 10^7 CFU Streptococcus pneumoniae serotype 19 infected in therapeutic C57BL/6 mouse model assessed as survival rate at 20 mg/kg, ip qd beginning at time of infection measured after 6 days post infection; format: functional; details: route intraperitoneal
structure (smiles),measurement,setting,value
CO/N=C(\C(=O)N[C@@H]1C(=O)N2C(C(=O)O)=C(CSc3nc(=O)c(O)nn3C)CS[C@H]12)c1csc(N)n1 [CEFTRIAXONE],log10cfu,Streptococcus pneumoniae [1],0.8
same,log10cfu,Streptococcus pneumoniae [2],4.6
same,log10cfu,Streptococcus pneumoniae [3],3.3
same,Activity,Streptococcus pneumoniae [4],Active
same,log10cfu,Streptococcus pneumoniae [5],0.5
same,Activity,Streptococcus pneumoniae [6],Active
same,Activity,Streptococcus pneumoniae [7],Active
same,Activity,Streptococcus pneumoniae [8],Active
same,Activity,Streptococcus pneumoniae [9],Active
same,Activity,Streptococcus pneumoniae [10],100%

# — ChEMBL document CHEMBL1240356, “Efficacy profiles of daptomycin for treatment of invasive and noninvasive pulmonary infections with Streptococcus pneumoniae” (2010)
